For two compounds, Neuronal cell viability and half-life results are on record in paper PMC6692352, “DF2726A, a new IL-8 signalling inhibitor, is able to counteract chemotherapy-induced neuropathic pain” (Scientific Reports, 2019).

One data set deals with F11 cells. Put plainly: Cell viability assay in F11 neuronal cells. The settings on record: 24 h, 5–60 µM.
Details of data set [1]: method as in PMID 28423567. Conditions: p.o. administration ref 22; cited from earlier work.

Method for F11 cells: For the subsequent experiments, DF2726A was used at a final concentration of 1 µM, and oxaliplatin at a final concentration of 20 µM. For comparison, paclitaxel alone or in combination with DF2726A was also used.
F11 hybridoma cells (ECACC 08062601), chosen as a model of DRG neurons[22],[32],[33] were cultivated in DMEM (Euroclone, Milan, Italy) supplemented with 10% FBS (Sigma-Aldrich, St. Louis, MO, USA), 1% penicillin/streptomycin (Euroclone, MI, Italy) and 1% glutamine (Euroclone) at 37 °C, in humidified 95% air with 5% CO2 atmosphere. For all the experiments, cells were used at 18th passage.
Supplementary Fig. 2: Effect of DF2726A, oxaliplatin and paclitaxel treatment on neuronal cell
viability. Cell viability assay of F11 cells after treatment at different concentrations of DF 2726A
(DF; 1-20 µM), oxaliplatin (OXA, 5-60 µM), paclitaxel (PAC, 5-20 nM) and the combination of 20
µM oxaliplatin+DF2726A (Oxa+DF) and paclitaxel+DF2726A (PAC+DF) at 24 h. Data are means

Take `O=C1[O][Pt]2([NH][C@@H]3CCCC[C@H]3[NH]2)[O]C1=O` [oxaliplatin, reference compound]: the Neuronal cell viability entry in the data set with F11 cells is “ineffective in modulating neuronal cell viability”. Usually half-life stands for how long it takes for the measured level to halve. Turning to `CC(C)Cc1ccc([C@@H](C)C(=O)NS(C)(=O)=O)cc1` [reparixin], the half-life in data set [1] was 1.78 h.
